Reference: BindingDB's records for patent US20250387388 (Medinno Pharmaceutical Technology (Zhuhai) Co., 2025)

Tests used:
[1] = molecular target: High affinity nerve growth factor receptor (Homo sapiens, UniProt P04629); experiment: Inhibitory Activity of Compounds on TRKA, TRKB and TRKC
[2] = molecular target: NT-3 growth factor receptor (Homo sapiens, UniProt Q16288); experiment: as above
[3] = molecular target: BDNF/NT-3 growth factors receptor (Homo sapiens, UniProt Q16620); experiment: as above
[4] = molecular target: Proto-oncogene tyrosine-protein kinase receptor Ret (Homo sapiens, UniProt P07949); experiment: Inhibitory Activity of Compounds on RET Kinase
Proto-oncogene tyrosine-protein kinase receptor Ret, sequence (P07949 whole entry): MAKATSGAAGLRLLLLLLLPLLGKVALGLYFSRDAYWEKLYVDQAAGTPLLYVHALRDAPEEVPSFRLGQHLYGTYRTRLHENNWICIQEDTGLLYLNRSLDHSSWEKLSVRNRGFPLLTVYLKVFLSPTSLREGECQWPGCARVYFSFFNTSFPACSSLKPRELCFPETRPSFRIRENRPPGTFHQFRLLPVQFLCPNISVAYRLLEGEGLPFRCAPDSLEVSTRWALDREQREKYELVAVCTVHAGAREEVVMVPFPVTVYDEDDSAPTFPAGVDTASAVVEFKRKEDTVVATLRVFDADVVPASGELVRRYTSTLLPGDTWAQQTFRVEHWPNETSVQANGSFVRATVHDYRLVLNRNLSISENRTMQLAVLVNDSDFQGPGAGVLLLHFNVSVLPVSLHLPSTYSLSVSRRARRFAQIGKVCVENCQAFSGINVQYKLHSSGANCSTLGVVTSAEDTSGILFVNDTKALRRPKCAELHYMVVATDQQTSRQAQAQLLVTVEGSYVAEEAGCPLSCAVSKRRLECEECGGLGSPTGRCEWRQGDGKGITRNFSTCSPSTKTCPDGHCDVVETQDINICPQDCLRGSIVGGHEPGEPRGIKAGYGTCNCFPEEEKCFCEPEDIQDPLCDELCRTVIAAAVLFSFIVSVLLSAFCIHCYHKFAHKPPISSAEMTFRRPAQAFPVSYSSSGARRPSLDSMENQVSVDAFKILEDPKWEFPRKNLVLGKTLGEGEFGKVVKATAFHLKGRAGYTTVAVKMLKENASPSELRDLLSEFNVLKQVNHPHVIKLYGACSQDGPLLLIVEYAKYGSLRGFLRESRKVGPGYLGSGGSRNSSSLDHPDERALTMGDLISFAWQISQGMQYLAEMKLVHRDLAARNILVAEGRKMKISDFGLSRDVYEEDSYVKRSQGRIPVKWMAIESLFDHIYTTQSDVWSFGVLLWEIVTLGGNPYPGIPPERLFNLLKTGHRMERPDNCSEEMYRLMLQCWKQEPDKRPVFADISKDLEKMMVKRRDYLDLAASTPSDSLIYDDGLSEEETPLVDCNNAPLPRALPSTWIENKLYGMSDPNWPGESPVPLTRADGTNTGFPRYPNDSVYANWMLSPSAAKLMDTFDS

BDNF/NT-3 growth factors receptor, sequence (Q16620 whole entry): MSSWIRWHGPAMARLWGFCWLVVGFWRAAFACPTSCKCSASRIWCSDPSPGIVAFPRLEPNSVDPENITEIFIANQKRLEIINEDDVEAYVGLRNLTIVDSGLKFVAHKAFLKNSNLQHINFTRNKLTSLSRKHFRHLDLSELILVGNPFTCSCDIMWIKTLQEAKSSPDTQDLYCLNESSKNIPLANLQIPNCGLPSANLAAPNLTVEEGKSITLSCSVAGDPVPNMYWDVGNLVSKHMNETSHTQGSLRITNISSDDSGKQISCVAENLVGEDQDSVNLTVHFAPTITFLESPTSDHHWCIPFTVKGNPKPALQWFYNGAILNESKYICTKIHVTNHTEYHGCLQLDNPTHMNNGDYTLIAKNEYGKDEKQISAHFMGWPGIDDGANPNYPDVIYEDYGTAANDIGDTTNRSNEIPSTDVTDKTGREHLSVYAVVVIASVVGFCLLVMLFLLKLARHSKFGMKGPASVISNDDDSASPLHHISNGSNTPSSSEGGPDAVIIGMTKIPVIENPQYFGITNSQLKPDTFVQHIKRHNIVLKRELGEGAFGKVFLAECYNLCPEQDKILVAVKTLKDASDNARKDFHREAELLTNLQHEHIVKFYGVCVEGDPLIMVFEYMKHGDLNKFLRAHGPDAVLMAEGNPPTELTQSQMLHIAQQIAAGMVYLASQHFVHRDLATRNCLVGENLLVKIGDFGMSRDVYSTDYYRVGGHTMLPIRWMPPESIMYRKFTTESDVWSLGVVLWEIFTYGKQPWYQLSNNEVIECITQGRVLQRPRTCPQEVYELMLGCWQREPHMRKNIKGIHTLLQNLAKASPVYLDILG
High affinity nerve growth factor receptor, sequence (P04629 whole entry): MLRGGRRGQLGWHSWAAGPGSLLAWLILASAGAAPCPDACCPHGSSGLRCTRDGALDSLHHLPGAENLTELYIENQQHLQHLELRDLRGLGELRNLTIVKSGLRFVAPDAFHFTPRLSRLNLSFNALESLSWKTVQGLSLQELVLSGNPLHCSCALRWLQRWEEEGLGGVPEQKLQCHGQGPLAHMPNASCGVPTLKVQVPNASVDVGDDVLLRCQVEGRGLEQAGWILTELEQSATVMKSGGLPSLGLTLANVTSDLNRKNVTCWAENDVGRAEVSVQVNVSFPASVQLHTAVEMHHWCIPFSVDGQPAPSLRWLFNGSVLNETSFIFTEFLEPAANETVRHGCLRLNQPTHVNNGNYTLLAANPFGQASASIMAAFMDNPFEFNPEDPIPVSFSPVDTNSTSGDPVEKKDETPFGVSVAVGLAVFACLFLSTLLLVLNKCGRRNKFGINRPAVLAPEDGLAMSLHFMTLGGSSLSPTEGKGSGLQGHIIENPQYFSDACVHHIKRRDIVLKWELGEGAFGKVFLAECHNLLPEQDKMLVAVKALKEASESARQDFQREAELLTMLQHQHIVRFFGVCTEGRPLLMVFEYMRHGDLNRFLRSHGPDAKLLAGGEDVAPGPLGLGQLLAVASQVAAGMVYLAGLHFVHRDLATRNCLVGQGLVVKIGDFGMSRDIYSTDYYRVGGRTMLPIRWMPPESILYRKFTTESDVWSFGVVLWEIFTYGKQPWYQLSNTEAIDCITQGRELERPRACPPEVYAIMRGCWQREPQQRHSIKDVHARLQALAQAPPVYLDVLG
NT-3 growth factor receptor, sequence (Q16288 whole entry): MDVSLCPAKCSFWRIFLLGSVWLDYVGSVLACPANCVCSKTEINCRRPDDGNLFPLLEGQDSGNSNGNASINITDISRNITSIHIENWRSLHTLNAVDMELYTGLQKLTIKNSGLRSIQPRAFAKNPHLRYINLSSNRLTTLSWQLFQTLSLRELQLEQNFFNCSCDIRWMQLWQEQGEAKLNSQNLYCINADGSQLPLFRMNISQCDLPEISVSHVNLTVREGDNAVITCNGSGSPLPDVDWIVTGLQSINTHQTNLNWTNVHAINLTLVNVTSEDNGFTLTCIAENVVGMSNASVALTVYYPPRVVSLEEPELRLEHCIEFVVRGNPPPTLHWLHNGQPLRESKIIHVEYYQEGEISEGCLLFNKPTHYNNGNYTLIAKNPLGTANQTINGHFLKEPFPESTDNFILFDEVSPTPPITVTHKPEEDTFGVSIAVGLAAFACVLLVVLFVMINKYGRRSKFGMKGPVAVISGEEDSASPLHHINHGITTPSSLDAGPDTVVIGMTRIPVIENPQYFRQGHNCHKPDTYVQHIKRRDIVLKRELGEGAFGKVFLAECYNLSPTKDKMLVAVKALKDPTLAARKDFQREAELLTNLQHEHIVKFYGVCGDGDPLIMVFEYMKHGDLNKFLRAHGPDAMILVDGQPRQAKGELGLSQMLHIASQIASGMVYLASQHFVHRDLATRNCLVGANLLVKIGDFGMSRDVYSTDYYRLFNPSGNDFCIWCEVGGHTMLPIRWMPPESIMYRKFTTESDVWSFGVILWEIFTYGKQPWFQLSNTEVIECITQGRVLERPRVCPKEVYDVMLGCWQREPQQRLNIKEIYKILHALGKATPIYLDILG

Row | SMILES | IC50 [1] [nM] | IC50 [2] [nM] | IC50 [3] [nM] | IC50 [4] [nM]
1 | CCc1cc(O)c(F)cc1-c1ccc2c(-c3nc4c([nH]3)CN(C3CCCN3C(=O)N3CCCC3N3Cc5nc(-c6n[nH]c7cc(-c8cc(F)c(O)cc8CC)ccc67)[nH]c5C3)C4)n[nH]c2c1 (stereo not drawn) [US20250387388, Compound MDI-231] | 2.82 | 1.49 | 5.86 | –
2 | CCc1cc(O)c(F)cc1-c1ccc2c(-c3nc4c([nH]3)CN(C3CN(CC)CCN3C(=O)N3CCN(CC)CC3N3Cc5nc(-c6n[nH]c7cc(-c8cc(F)c(O)cc8CC)ccc67)[nH]c5C3)C4)n[nH]c2c1 (stereo not drawn) [US20250387388, Compound MDI-236] | 0.23 | 0.2 | 1.06 | –
3 | CCc1cc(O)c(F)cc1-c1ccc2c(-c3nc4c([nH]3)CN(c3nc(N5CCOCC5)cnc3C(=O)c3ncc(N5CCOCC5)nc3N3Cc5nc(-c6n[nH]c7cc(-c8cc(F)c(O)cc8CC)ccc67)[nH]c5C3)C4)n[nH]c2c1 [US20250387388, Compound MDI-201] | 5.76 | 2.2 | 6.14 | –
4 | CCc1cc(O)c(F)cc1-c1ccc2c(-c3nc4c([nH]3)CN(C3CN(C(=O)N5CCOC(N6Cc7nc(-c8n[nH]c9cc(-c%10cc(F)c(O)cc%10CC)ccc89)[nH]c7C6)C5)CCO3)C4)n[nH]c2c1 (stereo not drawn) [US20250387388, Compound MDI-234] | 1.07 | 0.65 | 1.27 | –
5 | CCc1cc(O)c(F)cc1-c1ccc2c(-c3nc4c([nH]3)CN(C3CN(C)CCN3C(=O)N3CCN(C)CC3N3Cc5nc(-c6n[nH]c7cc(-c8cc(F)c(O)cc8CC)ccc67)[nH]c5C3)C4)n[nH]c2c1 (stereo not drawn) [US20250387388, Compound MDI-235] | 0.57 | 0.27 | 1.39 | 0.1
6 | CCc1cc(O)c(F)cc1-c1ccc2c(-c3nc4c([nH]3)CN(C3CCCCN3C(=O)N3CCCCC3N3Cc5nc(-c6n[nH]c7cc(-c8cc(F)c(O)cc8CC)ccc67)[nH]c5C3)C4)n[nH]c2c1 (stereo not drawn) [US20250387388, Compound MDI-233] | 9.01 | 6.32 | 30.4 | –
7 | CCc1cc(O)c(F)cc1-c1ccc2c(-c3nc4c([nH]3)CN(C3CC(O)CCN3C(=O)N3CCC(O)CC3N3Cc5nc(-c6n[nH]c7cc(-c8cc(F)c(O)cc8CC)ccc67)[nH]c5C3)C4)n[nH]c2c1 (stereo not drawn) [US20250387388, Compound MDI-245] | 0.83 | 0.57 | 3.37 | 0.99
